{
  "source": "patent US20080311099A1",
  "about": "“Pyridoxal-5-Phosphate and Related Compounds in Combination With Therapeutic Cardiovascular Compounds for Treating Angina” (MEDICURE INTERNATIONAL INC., priority 2004, published 2008)",
  "key": {"[1]": {"tested_on": "isolated non-ischemic working rat heart", "assay": "Glucose oxidation rates in isolated non-ischemic working rat heart ([14C] glucose, 14CO2 production)", "settings": "60 minutes aerobic perfusion, compound added about 5 minutes into the aerobic period; saline control 1580±183", "procedure": "The goal was to determine if […] altered glucose oxidation rates or cardiac function in the isolated non-ischemic working rat heart model. This was achieved by subjecting rat hearts to 60 minutes of aerobic perfusion. […] was added about 5 minutes into the aerobic period and the effects of […] on glucose metabolism was determined during the aerobic period. […] Rat hearts were cannulated for isolated working heart perfusions as described previously (Lopaschuk et al., J Pharmacol Exp Ther. 1993 January;264(1):135-44). In brief, male Sprague-Dawley rats (0.3-0.35 kg) were anesthetized with pentobarbital sodium (60 mg/kg i. p.). The hearts were quickly excised, the aorta was cannulated, and a retrograde perfusion at 37° C. was initiated at a hydrostatic pressure of 60 mm Hg. Hearts were trimmed of excess tissue, and the pulmonary artery and the opening to the left atrium were then cannulated. […] Spontaneously beating hearts were used in all perfusions, heart rate and aortic pressure were measured with a Biopac Systems Inc. blood pressure transducer connected to the aortic outflow line. Cardiac output and aortic flow were measured with Transonic […] ultrasonic flow probes in the preload and afterload lines, respectively. Coronary flow was calculated as the difference between cardiac output and aortic flow. […]"}, "[2]": {"assay": "Treatment of stress-induced angina in patients (P5P, pyridoxine, derivatives; alone and in combination therapies)", "type": "in vivo, human", "procedure": "Patients with a history of exercise induced angina are treated with P5P either before or after the onset of angina. Several measures are used to test the effectiveness of P5P for the treatment of angina including the time to onset of angina, exercise duration, time to 1 mm ST depression, and patient pain evaluation.\nThe experiment of Example 25 is repeated, this time testing combination therapies.\nThe Experiments of Example 28 are repeated, this time using pyridoxine instead of P5P."}, "[3]": {"assay": "Animal models for treatment of stress-induced angina (canine model of myocardial ischemia, canine model of exertional dysfunction, isolated perfused rat heart model of low flow ischemia)", "type": "in vivo", "settings": "compared with untreated or sham treated control animals", "description": "The canine model of myocardial ischemia, the canine model of exertional dysfunction, and the isolated perfused rate heart model of low flow ischemia, as previously and elsewhere described, is used to determine the effectiveness of P5P, pyridoxal, pyridoxine, and the compounds synthesized in Examples 1-24, to determine effectiveness of these compounds in treatment of angina.\nThe animal model experiments of Example 26 are repeated, this time with the combination treatment groups as elucidated in Examples 28, 29 and 30."}, "[4]": {"settings": "water, alcohol, and ether; cited from earlier work"}, "[5]": {"settings": "patients with a history of exercise induced angina, treated before or after the onset of angina"}},
  "data": [
    {"smiles": "O=C(O)C(Cl)Cl", "note": "[DCA, dichloroacetic acid, reference compound]", "values": [
      {"measurement": "glucose oxidation rates", "setting": "[1]", "result": "2422±140"}
    ]},
    {"smiles": "Cc1ncc(COP(=O)(O)O)c(C=O)c1O", "note": "[Example P5P, 3-hydroxy-2-methyl-5-[(phosphonooxy)methyl]-4-pyridine-carboxaldehyde]", "values": [
      {"measurement": "exercise duration", "setting": "[2]; [5]", "result": "increased"},
      {"measurement": "onset to angina (time to onset of angina)", "setting": "[2]; [5]", "result": "diminished"},
      {"measurement": "patient pain (patient pain evaluation)", "setting": "[2]; [5]", "result": "diminished"},
      {"measurement": "time to 1 mm ST depression", "setting": "[2]; [5]", "result": "diminished"},
      {"measurement": "angina outcomes, treatment alone", "setting": "[2]; patients, P5P treatment alone (Example 28)", "result": "improves angina outcomes"},
      {"measurement": "symptoms and levels of angina", "setting": "[3]", "result": "significantly lower symptoms and levels of angina"},
      {"measurement": "glucose oxidation rates", "setting": "[1]", "result": "2253±230"},
      {"measurement": "solubility", "setting": "[4]", "result": "essentially insoluble in water, alcohol, and ether"}
    ]},
    {"smiles": "Cc1ncc(CO)c(C=O)c1O", "note": "[pyridoxal]", "values": [
      {"measurement": "symptoms and levels of angina", "setting": "[3]", "result": "significantly lower symptoms and levels of angina"}
    ]},
    {"smiles": "Cc1ncc(CO)c(CO)c1O", "note": "[pyridoxine, 2-methyl-3-hydroxy-4,5-di(hydroxymethyl)pyridine]", "values": [
      {"measurement": "symptoms and levels of angina", "setting": "[3]", "result": "significantly lower symptoms and levels of angina"}
    ]}
  ]
}
